Measurements published in paper PMC7160673, “A Degenerate Peptide Library Approach to Reveal Sequence Determinants of Methyllysine-Driven Protein Interactions” (Frontiers in Cell and Developmental Biology, 2020).

What follows are substances tested on 53BP1 TTD (assay: Histone peptide microarray, 53BP1 TTD). Details: 53BP1 TTD hits, average signal per peptide.
Format: binding
Method in brief: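 Binding of protein or antibody to arrayed histone peptides read by AlexaFluor 647 fluorescence, with anti-GST primary (1:2,000) and labelled secondary (1:5,000) for GST-fused domain. Hybridisations in HEPES pH 7.5 buffer with 100 mM NaCl, 0.5% BSA and 0.1% NP-40; triple PBS-Tween washes between steps.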

Substance | Avg Signal
ARTK(Me3)QTARK(Ac)pSTGGK(Ac)APRK(Ac)QL-K(Biot)-NH2 [H3.1K4me3K9acS10pK14acK18ac] | 0.1468

What follows are substances tested on Abcam #ab8895, anti-H3K4me1 (assay: Histone peptide microarray, Abcam ab8895). Details: Abcam ab8895 (anti-H3K4me1) hits, average signal per peptide.
Format: binding

Substance | Avg Signal
Ac-SGRGQGGQGLGK(Ac)GGAQRHRQVLR-Peg-Biot [H4K12acK5QK8QK16QK20Q] | 0.02356
Ac-SGRGK(Ac)GGK(Me)GLGK(Ac)GGAK(Ac)RHRKVLR-Peg-Biot [H4K5acK8me1K12acK16ac] | 0.006645
ARTK(Me)QTARKSTGGKAPRK(Ac)QL-Peg-Biot [H3.1K4me1K18ac] | 0.7343
KSAPSpTGGVK(Me)KPHRYRPGT-G-K(Biot)-NH2 [H3.3K36meT32p] | 0.005437
Ac-SGRGKGGKGLGK(Me)GGAKRHRKVLR-Peg-Biot [Peptide H4K12me1] | 0.009402

What follows are substances tested against T1, MPP8 chromo (Homo sapiens, UniProt Q99549) (assay: Histone peptide microarray, MPP8 chromo). Details: normalized histone peptide array signal, hits; hybridization with 1 M MPP8 chromo (so in the source); two subarrays.
T1 construct: 50-118; made in house; host or cells: E. coli BL21
T1 sequence (Q99549 50-118): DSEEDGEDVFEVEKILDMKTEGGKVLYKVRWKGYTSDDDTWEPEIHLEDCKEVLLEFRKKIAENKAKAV
Format: binding
Experimental: (§1) Peptide microarrays were fabricated using an Aushon 2470 microarrayer and used as described ([Cornett et al., 2017]) with the following modifications. Protein and antibody hybridization steps were performed in buffer containing 25 mM HEPES pH 7.5, 100 mM NaCl, 0.5% BSA (w/v), and 0.1% NP-40. Slides were washed 3 × 5 min in PBS supplemented with 0.1% Tween-20 between each hybridization step. Antibodies used were primary anti-GST (Sigma #7781, 1:2,000 dilution) and an AlexaFluor 647-labeled secondary antibody (Life Technologies A-21245, 1:5,000 dilution). […] Full lists of peptides queried by array analysis are in Supplementary Table S2.

Substance | Avg Signal
ARTAQTARK(Me2)STGGKA-Peg-Biot [Peptide H3.1K4AK9me2] | 0.07994

The substances below were run on ABClonal #A2355, anti-H3K4me1 (assay: Histone peptide microarray, ABclonal A2355). Details: Abclonal A2355 (anti-H3K4me1) hits.
Format: binding
Experimental: as §1

Substance | Avg Signal
Ac-SGRGQGGQGLGK(Ac)GGAQRHRQVLR-Peg-Biot [H4K12acK5QK8QK16QK20Q] | 0.0006964
Ac-SGRGK(Ac)GGK(Me)GLGK(Ac)GGAK(Ac)RHRKVLR-Peg-Biot [H4K5acK8me1K12acK16ac] | 0.003516
ARTK(Me)QTARKSTGGKAPRK(Ac)QL-Peg-Biot [H3.1K4me1K18ac] | 0.5708
Ac-APRKQLATKAARK(Me2)pSAPSTGG-Peg-Biot [H3.3K27me2S28p] | 0.002617
KSAPSpTGGVK(Me)KPHRYRPGT-G-K(Biot)-NH2 [H3.3K36meT32p] | 0.00279
Ac-APRKQLAT-NleAARKSAPS-Peg-Biot [Peptide H3.3K23-Nle] | 0.0003163
ARTK(Me3)QTARK(Ac)pSTGGK(Ac)APRK(Ac)QL-K(Biot)-NH2 [H3.1K4me3K9acS10pK14acK18ac] | 0.02489
Ac-SGRGKGGKGLGK(Me)GGAKRHRKVLR-Peg-Biot [Peptide H4K12me1] | 0.01394

These substances were tested on CST 9733 (anti-H3K27me3) (assay: Histone peptide microarray, CST 9733). Details: histone peptide array signal normalized to the highest peptide average per subarray, hits; CST 9733 LOT:14 dilution 1:5,000.
Format: binding
Experimental: as §1

Substance | Avg Signal
Ac-SGRGQGGQGLGK(Ac)GGAQRHRQVLR-Peg-Biot [H4K12acK5QK8QK16QK20Q] | 0.0003661
Ac-SGRGK(Ac)GGK(Me)GLGK(Ac)GGAK(Ac)RHRKVLR-Peg-Biot [H4K5acK8me1K12acK16ac] | 7.434e-5
ARTK(Me)QTARKSTGGKAPRK(Ac)QL-Peg-Biot [H3.1K4me1K18ac] | 1.355e-5
Ac-APRKQLATKAARK(Me2)pSAPSTGG-Peg-Biot [H3.3K27me2S28p] | 0.004223
KSAPSpTGGVK(Me)KPHRYRPGT-G-K(Biot)-NH2 [H3.3K36meT32p] | 0.002226
Ac-APRKQLAT-NleAARKSAPS-Peg-Biot [Peptide H3.3K23-Nle] | 0.0003783
ARTK(Me3)QTARK(Ac)pSTGGK(Ac)APRK(Ac)QL-K(Biot)-NH2 [H3.1K4me3K9acS10pK14acK18ac] | 0.002027
Ac-SGRGKGGKGLGK(Me)GGAKRHRKVLR-Peg-Biot [Peptide H4K12me1] | 0.0001351

What follows are substances tested on Active Motif #39161, anti-H3K9me3 (assay: Histone peptide microarray, Active Motif 39161). Details: Active Motif 39161 (anti-H3K9me3) hits.
Format: binding

Substance | Avg Signal
Ac-SGRGQGGQGLGK(Ac)GGAQRHRQVLR-Peg-Biot [H4K12acK5QK8QK16QK20Q] | 0.02202
Ac-SGRGK(Ac)GGK(Me)GLGK(Ac)GGAK(Ac)RHRKVLR-Peg-Biot [H4K5acK8me1K12acK16ac] | 0.001214
Ac-APRKQLATKAARK(Me2)pSAPSTGG-Peg-Biot [H3.3K27me2S28p] | 0.009021
KSAPSpTGGVK(Me)KPHRYRPGT-G-K(Biot)-NH2 [H3.3K36meT32p] | 0.00231
Ac-APRKQLAT-NleAARKSAPS-Peg-Biot [Peptide H3.3K23-Nle] | 0.003975
ARTAQTARK(Me2)STGGKA-Peg-Biot [Peptide H3.1K4AK9me2] | 0.007885
ARTK(Me3)QTARK(Ac)pSTGGK(Ac)APRK(Ac)QL-K(Biot)-NH2 [H3.1K4me3K9acS10pK14acK18ac] | 0.01388
Ac-SGRGKGGKGLGK(Me)GGAKRHRKVLR-Peg-Biot [Peptide H4K12me1] | 0.001118

The substances below were run on Millipore #07-449, anti-H3K27me3 (assay: Histone peptide microarray, Millipore 07-449). Details: Millipore 07-449 (anti-H3K27me3) hits, average signal per peptide.
Format: binding

Substance | Avg Signal
Ac-SGRGQGGQGLGK(Ac)GGAQRHRQVLR-Peg-Biot [H4K12acK5QK8QK16QK20Q] | 0.0006189
ARTK(Me)QTARKSTGGKAPRK(Ac)QL-Peg-Biot [H3.1K4me1K18ac] | 0.002272
Ac-APRKQLATKAARK(Me2)pSAPSTGG-Peg-Biot [H3.3K27me2S28p] | 0.003767
KSAPSpTGGVK(Me)KPHRYRPGT-G-K(Biot)-NH2 [H3.3K36meT32p] | 0.0077
Ac-APRKQLAT-NleAARKSAPS-Peg-Biot [Peptide H3.3K23-Nle] | 0.001042
ARTK(Me3)QTARK(Ac)pSTGGK(Ac)APRK(Ac)QL-K(Biot)-NH2 [H3.1K4me3K9acS10pK14acK18ac] | 0.01919
Ac-SGRGKGGKGLGK(Me)GGAKRHRKVLR-Peg-Biot [Peptide H4K12me1] | 0.0009635
